Test results reported in patent EP4570793A1, “5-HT2A RECEPTOR INVERSE AGONIST, AND PREPARATION METHOD THEREFOR AND USE THEREOF” (Luye Innomind Pharma Shijiazhuang Co., Ltd., priority 2022, dated 2024).
Where two headings read alike, the source gives them in different places.

How the values were obtained:
[1] = In-vitro liver microsomal stability (dog); assay type: in vitro ADME; conditions: Dog liver microsomes, 1 µM, 0.5 mg/mL, NADPH
Procedure: (§1) Test Example 3. Evaluation of In-Vitro Liver Microsomal Stability
(§2) • 1) Preparation of test sample working solution: A test sample was diluted to 100 µM with methanol. • 2) Preparation of liver microsome working solution: Liver microsomes were diluted to 0.56 mg/mL with 100 mM phosphate-buffered saline. • 3) Preparation of working solution of reduced nicotinamide adenine dinucleotide phosphate (NADPH): A proper amount of NADPH was weighed out and diluted to 20 mM with phosphate-buffered saline, and then an equal volume of a 60 mM MgCl2 solution was added. • 4) Preparation of stop solution: Tolbutamide was diluted to 20 ng/mL with acetonitrile to serve as a stop solution containing an internal standard.
• 1) Anti-adsorption EP tubes for incubation were prepared and labeled with species, test samples, control samples (testosterone and dextromethorphan), time points (0 min, 5 min, 10 min, 20 min, 30 min, 60 min, Blank60, and NCF60), etc. • 2) 2 µL of test or control sample working solution and 178 µL of liver microsome working solution were added to each tube. For the Blank tube, 2 µL of acetonitrile was added instead of the test sample. The tubes were preincubated in a water bath at 37 °C for about 10 min, with 3 replicates set up for each sample. • 3) After the pre-incubation was completed, 20 µL of NADPH working solution was added to each tube except for the 0 min and NCF60 tubes to start the reaction. For the NCF60 tube, 20 µL of phosphate-buffered saline (containing 30 mM MgCl2) was added. In the incubation system, the final concentration of the test or control sample was 1 µM, the final concentration of liver microsomes was 0.5 mg/mL, the final concentration of NADPH was 1 mM, and the final concentration of MgCl2 was 3 mM. • 4) For the 0 min sample, 600 µL of stop solution was added, followed by the addition of the NADPH working solution. For the other samples, after each of them was incubated for the corresponding time, 600 µL of stop solution was added to stop the reaction. • 5) After the reaction was stopped, each sample was vortexed for 30 s and then centrifuged at 13500 rpm for 10 min. Then, 100 µL of the supernatant was transferred to an EP tube, and 100 µL of Milli-Q water was added. The mixture was well mixed by vortexing and analyzed by LC-MS/MS. • 6) Testosterone and dextromethorphan were used as positive control samples under the same conditions to assess the stability and reliability of the system. […]

[2] = In-vitro liver microsomal stability (human); assay type: in vitro ADME; conditions: Human liver microsomes, 1 µM, 0.5 mg/mL, NADPH
Procedure: as §1, §2
• 1) Anti-adsorption EP tubes for incubation were prepared and labeled with species, test samples, control samples (testosterone and dextromethorphan), time points (0 min, 5 min, 10 min, 20 min, 30 min, 60 min, Blank60, and NCF60), etc. • 2) 2 µL of test or control sample working solution and 178 µL of liver microsome working solution were added to each tube. For the Blank tube, 2 µL of acetonitrile was added instead of the test sample. The tubes were preincubated in a water bath at 37 °C for about 10 min, with 3 replicates set up for each sample. • 3) After the pre-incubation was completed, 20 µL of NADPH working solution was added to each tube except for the 0 min and NCF60 tubes to start the reaction. For the NCF60 tube, 20 µL of phosphate-buffered saline (containing 30 mM MgCl2) was added. In the incubation system, the final concentration of the test or control sample was 1 µM, the final concentration of liver microsomes was 0.5 mg/mL, the final concentration of NADPH was 1 mM, and the final concentration of MgCl2 was 3 mM. • 4) For the 0 min sample, 600 µL of stop solution was added, followed by the addition of the NADPH working solution. For the other samples, after each of them was incubated for the corresponding time, 600 µL of stop solution was added to stop the reaction. • 5) After the reaction was stopped, each sample was vortexed for 30 s and then centrifuged at 13500 rpm for 10 min. Then, 100 µL of the supernatant was transferred to an EP tube, and 100 µL of Milli-Q water was added. The mixture was well mixed by vortexing and analyzed by LC-MS/MS. • 6) Testosterone and dextromethorphan were used as positive control samples under the same conditions to assess the stability and reliability of the system.
Table 2: Test data for the compounds of the present disclosure in human and rat liver microsomes

5-HT2A receptor = 5-HT2A receptor (Homo sapiens, UniProt P28223); experiment: Assay for 5-HT2A receptor inverse agonist activity (NIH3T3-5-HT2A R cells, Bright-Glo luciferase, cell inhibition rate)
Sequence of 5-HT2A receptor (P28223 whole entry): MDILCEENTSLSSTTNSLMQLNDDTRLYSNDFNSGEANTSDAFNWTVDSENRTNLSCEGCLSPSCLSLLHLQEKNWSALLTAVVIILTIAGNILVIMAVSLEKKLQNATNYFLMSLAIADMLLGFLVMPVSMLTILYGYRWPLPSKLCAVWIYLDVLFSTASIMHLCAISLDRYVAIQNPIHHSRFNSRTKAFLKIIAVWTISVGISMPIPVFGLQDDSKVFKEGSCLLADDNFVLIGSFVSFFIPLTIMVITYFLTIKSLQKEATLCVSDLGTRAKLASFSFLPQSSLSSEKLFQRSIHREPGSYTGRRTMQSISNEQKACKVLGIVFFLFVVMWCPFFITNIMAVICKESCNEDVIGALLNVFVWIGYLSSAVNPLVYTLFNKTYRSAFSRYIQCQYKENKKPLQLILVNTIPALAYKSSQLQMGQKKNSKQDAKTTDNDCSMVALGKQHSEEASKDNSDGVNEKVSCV
Procedure: Assay for 5-HT2A Receptor Inverse Agonist Activity
• Cell line: adherent cells NIH3T3-5-HT2A R • Cell culture medium: DMEM + 10% FBS (purchased from GBICO) • Cell culture plate: 96-well white/clear bottom plate (purchased from Perkin Elmer) • Detection kit: Bright-Glo™ Luciferase (purchased from Promega) • Detection instrument: BioTek multimode microplate reader
NIH3T3-5HT2A R cells in the logarithmic growth phase were seeded into a 96-well white/clear bottom plate at a density of 1000 cells/well and then cultured overnight in an incubator at 37 °C with 5% CO2. […] Duplicate wells were set up for each concentration. […] After the drug addition, the cells were cultured in the incubator at 37 °C with 5% CO2 for another 120 h. On the sixth day, a Bright-Glo™ Luciferase reagent was added to the cells in a volume equal to that of the cell culture medium. The plate was then incubated in the dark at room temperature for 20 min, with the plate shaker vibrating once every 5 min. The luminescence intensity was detected using a microplate reader, and the cell inhibition rate was calculated. Data were processed using GraphPad Prism 7.0 to obtain the cell inhibition rate curve and calculate IC50.

hERG potassium channels = hERG potassium channels (Homo sapiens, UniProt Q12809); experiment: cell-based
Sequence of hERG potassium channels (Q12809 whole entry): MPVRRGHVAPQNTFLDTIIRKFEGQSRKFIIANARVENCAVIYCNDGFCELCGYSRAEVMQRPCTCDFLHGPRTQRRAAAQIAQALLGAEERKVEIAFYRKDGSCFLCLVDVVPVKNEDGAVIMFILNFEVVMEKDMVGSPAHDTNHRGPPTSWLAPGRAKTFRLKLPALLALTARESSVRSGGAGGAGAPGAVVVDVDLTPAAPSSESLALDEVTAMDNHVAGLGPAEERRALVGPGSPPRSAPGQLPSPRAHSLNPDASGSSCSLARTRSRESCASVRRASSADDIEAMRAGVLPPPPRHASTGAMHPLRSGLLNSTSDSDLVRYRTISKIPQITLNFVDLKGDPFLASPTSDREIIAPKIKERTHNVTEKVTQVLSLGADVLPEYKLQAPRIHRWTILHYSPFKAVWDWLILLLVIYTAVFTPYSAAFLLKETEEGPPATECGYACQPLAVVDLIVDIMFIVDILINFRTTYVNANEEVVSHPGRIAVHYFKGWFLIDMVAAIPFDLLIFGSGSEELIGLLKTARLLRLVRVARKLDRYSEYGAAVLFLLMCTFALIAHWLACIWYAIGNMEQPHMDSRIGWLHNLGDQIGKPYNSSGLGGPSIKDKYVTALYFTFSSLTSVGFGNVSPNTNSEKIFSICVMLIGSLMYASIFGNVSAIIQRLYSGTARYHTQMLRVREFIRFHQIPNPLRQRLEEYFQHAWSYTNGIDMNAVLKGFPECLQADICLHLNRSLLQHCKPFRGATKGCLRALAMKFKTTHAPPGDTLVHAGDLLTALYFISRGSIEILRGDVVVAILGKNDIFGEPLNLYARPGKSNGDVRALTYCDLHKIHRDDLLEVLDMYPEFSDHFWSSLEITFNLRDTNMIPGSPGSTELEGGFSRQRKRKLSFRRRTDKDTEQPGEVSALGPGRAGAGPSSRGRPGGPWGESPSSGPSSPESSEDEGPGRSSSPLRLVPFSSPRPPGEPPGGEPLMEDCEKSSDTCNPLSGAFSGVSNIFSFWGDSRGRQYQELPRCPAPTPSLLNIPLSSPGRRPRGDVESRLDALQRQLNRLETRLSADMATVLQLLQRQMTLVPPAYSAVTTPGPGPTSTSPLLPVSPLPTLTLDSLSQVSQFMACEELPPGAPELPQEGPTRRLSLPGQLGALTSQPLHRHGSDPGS
Procedure: • Species & strain: CHO-hERG cell line (Chinese hamster ovary cells stably expressing hERG channels) • Culture medium: 90% F12, 10% fetal bovine serum, 100 µg/mL G418, and 100 µg/mL Hygromycin B • Culture conditions: incubator at 37 °C with 5% CO2 • Cryopreservation condition: liquid nitrogen
On the day of the test, the compound was diluted with DMSO to an intermediate concentration. Then, 10 µL of the intermediate-concentration compound was transferred to 4990 µL of extracellular fluid, achieving a 500-fold dilution to obtain the final concentration to be tested.
hERG potassium channel currents were recorded at room temperature by the whole-cell patch clamp technique in the CHO (Chinese hamster ovary) cells stably expressing hERG potassium channels. Glass microelectrodes were formed by pulling a glass electrode blank (BF150-86-10, Sutter) using a puller. The tip resistance after perfusion of electrode internal solution was about 2-5 MΩ. The glass microelectrodes could be connected to a patch clamp amplifier after being inserted into amplifier probes. The clamping voltage and data recording were controlled and recorded by a computer with a pClamp 10 software, with a sampling frequency of 10 kHz and a filtering frequency of 2 kHz. After achieving the whole-cell recording, the cells were clamped at -80 mV. The step voltage evoking hERG potassium current (IhERG) was changed from -80 mV to +20 mV by applying a 2 s depolarization voltage, followed by repolarization to -50 mV for 1 s, and then returned to -80 mV. This voltage stimulation was applied every 10 s, and after it was determined that the hERG potassium currents were stable (1 min), the administration process was started. Each test concentration of the compound was applied for at least 1 min, and at least 2 cells (n ≥ 2) were tested for each concentration.

[3] = 5-HT2A inverse agonist activity IC50 (nM), NIH3T3-5HT2A R cells, 120 h, luminescence

IC50 (5-HT2A receptor)	SMILES	IC50 (5-HT2A receptor; [3])	further results
149 nM	CN1CCC(N(Cc2ccc(F)cn2)C(=O)NCc2ccc(OCC3CC3)cn2)CC1 [Compound 3]		Remaining amount% at 60 min [1]: 100.0%; Remaining amount% at 60 min [2]: 94.1%
> 1000 nM	CC(C)COc1ccc(CNC(=O)N(Cc2ccc3ncccc3c2)C2CCN(C)CC2)nc1 [Compound 8]		
> 1000 nM	CN1CCC(N(Cc2ccc(F)cn2)C(=O)NCc2ccc(OCC3CC3(C)C)cn2)CC1 (stereo not shown) [Compound 4]		
	CN1CCC(N(Cc2ccc(F)cn2)C(=O)NCc2ccc3ncccc3c2)CC1 [Compound 10]	29.6 nM	Remaining amount% at 60 min [1]: 58.6%; Remaining amount% at 60 min [2]: 71.9%; IC50 (hERG potassium channels): 3860 nM
	CN1CCC(N(Cc2ccc(F)cn2)C(=O)NCc2ccc(OCC(F)(F)F)nc2)C(C)(C)C1 (single isomer, unassigned) [Compound 49A]	105 nM	
	O=C(NCc1ccc(OCC(F)(F)F)nc1)N(Cc1ccc(F)cn1)C1CCNCC1F (single isomer, unassigned) [Compound 56B]	325 nM	IC50 (hERG potassium channels): 12600 nM
79.2 nM	CN1CCC(N(Cc2ccc(F)cn2)C(=O)NCc2ccc3ccccc3c2)CC1 [Compound 61]		
> 1000 nM	Cc1cc(CN(C(=O)NCc2ccc(OCC(F)(F)F)nc2)[C@@H]2CCN(C)C[C@@H]2F)nn1C [Compound 82A]		
	[2H]C([2H])([2H])N1CC[C@@H](N(Cc2ccc(F)cn2)C(=O)NCc2ccc(OCC(F)(F)F)nc2)[C@@H](F)C1 (single isomer, unassigned) [Compound 72A]	416 nM	
664 nM	Cc1cc(CN(C(=O)NCc2ccc(OCC(F)(F)F)nc2)[C@H]2CCN(C)C[C@H]2F)nn1C [Compound 82B]		
33.1 nM	CN1CCC(N(Cc2ccc(F)cn2)C(=O)NCc2cnc(OC3CC(F)(F)C3)c(F)c2)CC1 [Compound 19]		Remaining amount% at 60 min [1]: 78.39%; Remaining amount% at 60 min [2]: 72.49%
> 1000 nM	CN1CC[C@@H](N(Cc2ccc(F)cc2)C(=O)NCc2ccc3ncccc3c2)[C@@H](F)C1 [Compound 86A]		
	O=C(NCc1ccc(OCC(F)(F)F)nc1)N(Cc1ccc(F)cn1)C1CCNCC1F (single isomer, unassigned) [Compound 56A]	> 1000 nM	IC50 (hERG potassium channels): 15500 nM
	CC(C)COc1ccc(CNC(=O)N(Cc2ccc(F)cc2)C2CCN(C)CC2)cc1 [Pimavanserin, reference compound]		Remaining amount% at 60 min [1]: 68.5%; Remaining amount% at 60 min [2]: 70.7%
	CN1CC[C@@H](N(Cc2ccc(F)cc2)C(=O)NCc2ccc3c(ccn3C)c2)[C@@H](F)C1 (single isomer, unassigned) [Compound 85A]	> 1000 nM	
	CN1CCC(N(Cc2ccc(F)cc2)C(=O)NCc2ccc(OCC(F)(F)F)nc2)C2(CC2)C1 (single isomer, unassigned) [Compound 83A]	10.4 nM	
72.8 nM	CN1CCC(N(Cc2ccc(F)cn2)C(=O)NCc2ccc(OC3CC3)cn2)CC1 [Compound 2]		Remaining amount% at 60 min [1]: 76.7%; Remaining amount% at 60 min [2]: 79.7%
	CN1CCC(N(Cc2ccc(F)cc2)C(=O)NCc2ccc(OCC(F)(F)F)nc2)C2(CC2)C1 (single isomer, unassigned) [Compound 83B]	211 nM	
	CC(C)N1CC[C@@H](N(Cc2ccc(F)cn2)C(=O)NCc2ccc(OCC(F)(F)F)nc2)[C@@H](F)C1 (single isomer, unassigned) [Compound 70A]	> 1000 nM	
	[2H]C([2H])([2H])N1CC[C@H](N(Cc2ccc(F)cn2)C(=O)NCc2ccc(OCC(F)(F)F)nc2)[C@H](F)C1 (single isomer, unassigned) [Compound 72B]	43.7 nM	

IC50 (5-HT2A receptor)	SMILES	IC50 (5-HT2A receptor; [3])	further results
64.4 nM	CN1CCC(N(Cc2ccc(F)cn2)C(=O)NCc2ccc3c(c2)CCC3)CC1 [Compound 60]		
184 nM	CN1CCC(N(Cc2ccc(F)cn2)C(=O)NCc2ccc3c(c2)c(F)cn3C)CC1 [Compound 13]		
	CCN1CC[C@@H](N(Cc2ccc(F)cn2)C(=O)NCc2ccc(OCC(F)(F)F)nc2)[C@@H](F)C1 (single isomer, unassigned) [Compound 69A]	> 1000 nM	
	CN1CCC(N(Cc2ccc(F)cn2)C(=O)NCc2ccc(OCC(F)(F)F)nc2)CC1 [Compound 5]	13.1 nM	Remaining amount% at 60 min [1]: 99.8%; Remaining amount% at 60 min [2]: 99.9%
86.1 nM	CN1CCC(N(Cc2ccc(F)cn2)C(=O)NCc2ccc3c(c2)C=CC3)CC1 [Compound 59]		IC50 (hERG potassium channels): 1480 nM
	CN1CCC(N(Cc2ccc(F)cn2)C(=O)NCc2ccc(OCC(F)(F)F)nc2)C2(CC2)C1 (single isomer, unassigned) [Compound 50B]	381 nM	
> 1000 nM	CN1CCC(N(Cc2ccc(F)cn2)C(=O)NCc2ccc3c(c2)c(C(F)(F)F)cn3C)CC1 [Compound 84]		
	CC(C)N1CC[C@H](N(Cc2ccc(F)cn2)C(=O)NCc2ccc(OCC(F)(F)F)nc2)[C@H](F)C1 (single isomer, unassigned) [Compound 70B]	280 nM	
672 nM	CN1CCC(N(Cc2ccc(F)cn2)C(=O)NCc2ccc3nc[nH]c3c2)CC1 [Compound 11]		
	CN1CCC(N(Cc2ccc(F)cn2)C(=O)NCc2ccc(OCC(F)(F)F)nc2)C(F)(F)C1 (single isomer, unassigned) [Compound 46A]	> 1000 nM	Remaining amount% at 60 min [1]: 40.77%; Remaining amount% at 60 min [2]: 1.21%
	CN1CCC(N(Cc2ccc(F)cn2)C(=O)NCc2ccc(OCC(F)(F)F)nc2)C(C)(C)C1 (single isomer, unassigned) [Compound 49B]	> 1000 nM	
	CN1CC[C@H](N(Cc2ccc(F)cc2)C(=O)NCc2ccc3c(ccn3C)c2)[C@H](F)C1 (single isomer, unassigned) [Compound 85B]	88.7 nM	
	CCN1CC[C@H](N(Cc2ccc(F)cn2)C(=O)NCc2ccc(OCC(F)(F)F)nc2)[C@H](F)C1 (single isomer, unassigned) [Compound 69B]	156 nM	
	CN1CCC(N(Cc2ccc(F)cn2)C(=O)NCc2ccc3occc3c2)CC1 [Compound 57]	51.9 nM	IC50 (hERG potassium channels): 1440 nM
> 1000 nM	CC(C)COc1ccc(CNC(=O)N(Cc2ccc3ncccc3c2)C2CCN(C)CC2)cc1 [Compound 7]		IC50 (hERG potassium channels): 1320 nM
> 1000 nM	CN1CC2CCC(C1)C2N(Cc1ccc(F)cn1)C(=O)NCc1ccc(OCC(F)(F)F)nc1 (stereo not shown) [Compound 77]		
36.8 nM	CN1CC[C@H](N(Cc2ccc(F)cc2)C(=O)NCc2ccc3ncccc3c2)[C@H](F)C1 [Compound 86B]		
> 1000 nM	CN1CC[C@@H](N(Cc2ccc(F)cn2)C(=O)NCc2ccc(OCC(F)(F)F)nc2)[C@H](F)C1 [Compound 67]		Remaining amount% at 60 min [1]: 81.4%; Remaining amount% at 60 min [2]: 66.2%
	CN1CCC(N(Cc2ccc(F)cn2)C(=O)NCc2ccc(OC3CC(F)(F)C3)nc2)CC1 [Compound 6]	25.4 nM	Remaining amount% at 60 min [1]: 98.8%; Remaining amount% at 60 min [2]: 90.8%
41 nM	CN1CCC(N(Cc2ccc(F)cn2)C(=O)NCc2ccc3sccc3c2)CC1 [Compound 58]		

SMILES	IC50 (5-HT2A receptor)	IC50 (5-HT2A receptor; [3])	further results
CN1C2CCC1CC(N(Cc1ccc(F)cn1)C(=O)NCc1ccc(OCC(F)(F)F)nc1)C2 (stereo not shown) [Compound 79]	771 nM		
